Literature values as cited in US7022724B2, “Cognition enhancing derivatives of isoxazole triazoloindane GABA-A α5 receptor subunit ligands” (Merck Sharp & Dohme Ltd., priority 2001, dated 2006).

Legend:
[1] = reported by McNamara and Skelton, Psychobiology 21:101–108
[2] = background statement

In the case of COC(=O)c1cc2c(cn1)[nH]c1ccccc12 [β-CCM], the “spatial learning in the Morris watermaze” value [1] is listed as “enhanced spatial learning” and the proconvulsant effect [2] is listed as “proconvulsant”.
